Where a SMILES comes first, the peptide text is derived from it.
Target: HLA B*0801 (Homo sapiens, UniProt P01889, A93T/A95T/D138N/E176V/E187T/K202T/Q94N/R180D/S35A/V36M/Y33D/Y91F)
Test: biochemical
Format: binding

| Compound | IC50 |
| --- | --- |
| C[C@H](NC(=O)[C@H](CCCCN)NC(=O)[C@H](Cc1ccccc1)NC(=O)[C@H](CCCCN)NC(=O)[C@H](CC(=O)O)NC(=O)[C@H](CCCNC(=N)N)NC(=O)[C@H](CC(N)=O)NC(=O)[C@@H](N)Cc1ccc(O)cc1)C(=O)N[C@@H](Cc1ccccc1)C(=O)O [3102.0564] (H-YNRDKFKAF-OH) | 20 nM |
| CC(C)C[C@H](NC(=O)[C@H](Cc1ccccc1)NC(=O)[C@H](C)NC(=O)[C@H](Cc1ccccc1)NC(=O)[C@H](CCCNC(=N)N)NC(=O)[C@H](Cc1ccc(O)cc1)NC(=O)[C@H](CCCNC(=N)N)NC(=O)[C@H](CC(N)=O)NC(=O)[C@@H](N)CC(N)=O)C(=O)O [3102.0568] (H-NNRYRFAFL-OH) | 31 nM |
| CC(C)[C@H](NC(=O)[C@H](CC(N)=O)NC(=O)[C@H](C)NC(=O)[C@H](Cc1ccccc1)NC(=O)[C@H](CCCCN)NC(=O)[C@H](CCCCN)NC(=O)[C@H](Cc1c[nH]cn1)NC(=O)[C@H](CCCNC(=N)N)NC(=O)[C@@H](N)CC(N)=O)C(=O)O [3102.0572] (H-NRHKKFANV-OH) | 36 nM |
| CC[C@H](C)[C@H](NC(=O)[C@@H]1CCCN1C(=O)[C@@H](NC(=O)[C@H](Cc1c[nH]cn1)NC(=O)[C@H](Cc1ccc(O)cc1)NC(=O)[C@H](CCCCN)NC(=O)[C@H](CCCNC(=N)N)NC(=O)[C@@H](N)Cc1ccc(O)cc1)C(C)C)C(=O)N[C@@H](CCSC)C(=O)O [3102.0573] (H-YRKYHVPIM-OH) | 62 nM |
| CC[C@H](C)[C@H](NC(=O)[C@H](CCCNC(=N)N)NC(=O)[C@H](CCCNC(=N)N)NC(=O)[C@H](CCSC)NC(=O)[C@H](CC(C)C)NC(=O)[C@H](C)NC(=O)[C@@H](N)CC(N)=O)C(=O)N[C@@H](C)C(=O)N[C@H](C(=O)O)C(C)C [3102.0577] (H-NALMRRIAV-OH) | 17 nM |
| CC[C@H](C)[C@H](NC(=O)[C@H](Cc1ccc(O)cc1)NC(=O)[C@@H](NC(=O)[C@H](CCCCN)NC(=O)[C@H](CCCCN)NC(=O)[C@H](Cc1ccccc1)NC(=O)[C@H](CCCNC(=N)N)NC(=O)[C@@H](N)CO)C(C)C)C(=O)N[C@@H](CC(C)C)C(=O)O [3102.0579] (H-SRFKKVYIL-OH) | 76 nM |
| CC[C@H](C)[C@H](NC(=O)[C@H](Cc1c[nH]cn1)NC(=O)[C@H](Cc1ccccc1)NC(=O)[C@H](CCCCN)NC(=O)[C@H](CC(C)C)NC(=O)[C@H](CCCNC(=N)N)NC(=O)[C@H](CS)NC(=O)[C@@H](N)Cc1c[nH]c2ccccc12)C(=O)N[C@H](C(=O)O)C(C)C [3102.0584] (H-WCRLKFHIV-OH) | 82 nM |
| CC[C@H](C)[C@H](NC(=O)[C@H](CO)NC(=O)[C@@H](NC(=O)[C@H](CC(C)C)NC(=O)[C@H](CCCCN)NC(=O)[C@H](CCSC)NC(=O)[C@H](CCCCN)NC(=O)[C@@H](NC(=O)[C@@H](N)CO)[C@@H](C)CC)C(C)C)C(=O)O [3102.0585] (H-SIKMKLVSI-OH) | 16 nM |
| CSCC[C@H](NC(=O)[C@H](CCC(N)=O)NC(=O)[C@@H](N)CO)C(=O)N[C@@H](CCC(=O)O)C(=O)N[C@@H](CCCNC(=N)N)C(=O)N[C@@H](Cc1ccccc1)C(=O)N[C@@H](CC(N)=O)C(=O)N[C@@H](CS)C(=O)N[C@@H](CO)C(=O)O [3102.0586] (H-SQMERFNCS-OH) | 39 nM |
| CC(C)C[C@H](NC(=O)[C@H](Cc1ccccc1)NC(=O)[C@H](Cc1ccc(O)cc1)NC(=O)[C@H](CC(C)C)NC(=O)[C@H](CCCNC(=N)N)NC(=O)[C@H](CCC(N)=O)NC(=O)[C@H](CC(C)C)NC(=O)[C@H](Cc1ccccc1)NC(=O)[C@@H](N)Cc1ccccc1)C(=O)O [3102.0589] (H-FFLQRLYFL-OH) | 6.8 nM |
| CC[C@H](C)[C@H](NC(=O)[C@@H](NC(=O)[C@H](CO)NC(=O)[C@H](CCCNC(=N)N)NC(=O)[C@H](CCC(=O)O)NC(=O)[C@H](CCCCN)NC(=O)[C@H](CCSC)NC(=O)[C@@H](N)CCSC)[C@@H](C)O)C(=O)N[C@@H](CC(C)C)C(=O)O [3102.0596] (H-MMKERSTIL-OH) | 35 nM |
| CC[C@H](C)[C@H](NC(=O)[C@H](CCCNC(=N)N)NC(=O)[C@H](CCC(=O)O)NC(=O)[C@H](CCCCN)NC(=O)[C@H](CCSC)NC(=O)[C@@H](N)CC(C)C)C(=O)N[C@@H](CO)C(=O)N[C@@H](CO)C(=O)N[C@@H](CCC(=O)O)C(=O)O [3102.0597] (H-LMKERISSE-OH) | 82 nM |
| CC[C@H](C)[C@H](NC(=O)[C@@H]1CCCN1C(=O)[C@H](CCCNC(=N)N)NC(=O)[C@H](CCCNC(=N)N)NC(=O)[C@H](CCC(=O)O)NC(=O)[C@H](CCCCN)NC(=O)[C@H](CCSC)NC(=O)[C@@H](N)[C@@H](C)O)C(=O)N[C@@H](CC(C)C)C(=O)O [3102.0600] (H-TMKERRPIL-OH) | 1.8 nM |
| CC(C)C[C@H](NC(=O)CNC(=O)[C@@H](N)CC(N)=O)C(=O)N[C@H](C(=O)N[C@@H](CCCNC(=N)N)C(=O)N[C@@H](CC(C)C)C(=O)N[C@@H](CC(N)=O)C(=O)N[C@@H](C)C(=O)N[C@@H](Cc1ccccc1)C(=O)O)C(C)C [3102.0603] (H-NGLVRLNAF-OH) | 57 nM |
| CSCC[C@H](N)C(=O)N[C@@H](Cc1ccc(O)cc1)C(=O)N[C@@H](CCCCN)C(=O)N[C@@H](CO)C(=O)N[C@@H](CCCNC(=N)N)C(=O)N[C@H](C(=O)N[C@@H](CCC(=O)O)C(=O)N[C@@H](CCCNC(=N)N)C(=O)N[C@H](C(=O)O)C(C)C)C(C)C [3102.0607] (H-MYKSRVERV-OH) | 47 nM |
| CC(C)C[C@H](NC(=O)[C@@H]1CCCN1C(=O)[C@H](CCCNC(=N)N)NC(=O)[C@H](Cc1ccccc1)NC(=O)[C@H](CCCCN)NC(=O)[C@H](CCCCN)NC(=O)[C@H](CCCNC(=N)N)NC(=O)[C@H](Cc1ccc(O)cc1)NC(=O)[C@@H](N)Cc1ccccc1)C(=O)O [3102.0608] (H-FYRKKFRPL-OH) | 0.088 nM |
| CC[C@H](C)[C@H](NC(=O)[C@H](CCSC)NC(=O)[C@H](CC(C)C)NC(=O)[C@@H]1CCCN1C(=O)[C@@H](N)CCCNC(=N)N)C(=O)N[C@@H](Cc1ccccc1)C(=O)N[C@@H](CCSC)C(=O)N[C@@H](CO)C(=O)NCC(=O)O [3102.0609] (H-RPLMIFMSG-OH) | 12 nM |
| CC(C)C[C@H](NC(=O)[C@H](CCCNC(=N)N)NC(=O)[C@@H](NC(=O)[C@H](Cc1ccccc1)NC(=O)[C@H](Cc1c[nH]cn1)NC(=O)CNC(=O)[C@H](CCCCN)NC(=O)[C@H](CC(N)=O)NC(=O)[C@@H](N)Cc1ccccc1)[C@@H](C)O)C(=O)O [3102.0610] (H-FNKGHFTRL-OH) | 16 nM |
| CSCC[C@H](NC(=O)[C@@H](NC(=O)[C@H](CS)NC(=O)[C@H](CCCCN)NC(=O)[C@H](CCC(N)=O)NC(=O)[C@H](CC(C)C)NC(=O)[C@H](CCCCN)NC(=O)[C@H](CC(C)C)NC(=O)[C@@H](N)CCSC)C(C)C)C(=O)O [3102.0611] (H-MLKLQKCVM-OH) | 9.3 nM |
| CC[C@H](C)[C@H](NC(=O)[C@H](CO)NC(=O)[C@H](Cc1ccccc1)NC(=O)[C@H](CC(C)C)NC(=O)[C@@H](NC(=O)[C@H](CCCNC(=N)N)NC(=O)[C@H](CC(C)C)NC(=O)[C@@H](N)Cc1c[nH]cn1)C(C)C)C(=O)N[C@@H](Cc1ccccc1)C(=O)O [3102.0612] (H-HLRVLFSIF-OH) | 4.7 nM |
| CC(C)C[C@H](NC(=O)[C@@H]1CCCN1C(=O)[C@@H](N)CO)C(=O)N[C@@H](CO)C(=O)N[C@@H](CCCCN)C(=O)N[C@@H](CS)C(=O)N[C@H](C(=O)N[C@H](C(=O)N[C@H](C(=O)O)C(C)C)C(C)C)C(C)C [3102.0613] (H-SPLSKCVVV-OH) | 31 nM |
| CC[C@H](C)[C@H](NC(=O)[C@H](CO)NC(=O)[C@@H](NC(=O)[C@@H](NC(=O)[C@H](Cc1c[nH]c2ccccc12)NC(=O)[C@H](CCCCN)NC(=O)[C@H](CCSC)NC(=O)[C@@H](N)CCSC)[C@@H](C)CC)[C@@H](C)CC)C(=O)N[C@@H](CC(C)C)C(=O)O [3102.0616] (H-MMKWIISIL-OH) | 1.3 nM |
| CC(C)C[C@H](NC(=O)[C@H](CO)NC(=O)CNC(=O)[C@H](Cc1ccc(O)cc1)NC(=O)[C@H](CCCCN)NC(=O)[C@H](Cc1c[nH]cn1)NC(=O)[C@H](CCCCN)NC(=O)[C@H](CC(C)C)NC(=O)[C@@H](N)Cc1ccccc1)C(=O)O [3102.0617] (H-FLKHKYGSL-OH) | 0.14 nM |
| CC[C@H](C)[C@H](NC(=O)[C@@H](NC(=O)[C@H](CC(C)C)NC(=O)[C@H](Cc1ccccc1)NC(=O)[C@H](Cc1c[nH]cn1)NC(=O)[C@@H](NC(=O)[C@@H](NC(=O)[C@H](CCCCN)NC(=O)[C@@H](N)CCC(=O)O)[C@@H](C)CC)[C@@H](C)CC)[C@@H](C)O)C(=O)O [3102.0618] (H-EKIIHFLTI-OH) | 5 nM |
| CSCC[C@H](NC(=O)[C@H](CS)NC(=O)[C@H](CCCNC(=N)N)NC(=O)[C@H](Cc1ccc(O)cc1)NC(=O)[C@H](CCCCN)NC(=O)[C@H](CCCCN)NC(=O)[C@@H](N)CC(N)=O)C(=O)N[C@@H](C)C(=O)N[C@@H](CC(C)C)C(=O)O [3102.0619] (H-NKKYRCMAL-OH) | 1.9 nM |
| CC[C@H](C)[C@H](NC(=O)[C@@H](N)CS)C(=O)N[C@H](C(=O)N[C@@H](CC(N)=O)C(=O)N[C@@H](CCCCN)C(=O)N[C@@H](Cc1ccccc1)C(=O)N[C@@H](CCSC)C(=O)N[C@@H](CO)C(=O)N[C@@H](Cc1ccccc1)C(=O)O)C(C)C [3102.0620] (H-CIVNKFMSF-OH) | 60 nM |
| CC[C@H](C)[C@H](NC(=O)[C@H](CCCNC(=N)N)NC(=O)[C@@H](N)CO)C(=O)N[C@@H](CO)C(=O)N[C@@H](CCCNC(=N)N)C(=O)N[C@@H](Cc1ccccc1)C(=O)N[C@@H](C)C(=O)N[C@@H](CC(N)=O)C(=O)N[C@@H](CC(C)C)C(=O)O [3102.0622] (H-SRISRFANL-OH) | 20 nM |
| CC[C@H](C)[C@H](NC(=O)[C@@H]1CCCN1C(=O)[C@@H](N)CCC(=O)O)C(=O)N[C@@H](CCCCN)C(=O)N[C@@H](Cc1c[nH]cn1)C(=O)N[C@@H](CCCCN)C(=O)N[C@@H](Cc1ccc(O)cc1)C(=O)N1CCC[C@H]1C(=O)N[C@@H](CC(C)C)C(=O)O [3102.0624] (H-EPIKHKYPL-OH) | 1.3 nM |
| C[C@H](NC(=O)[C@H](Cc1ccccc1)NC(=O)[C@H](CO)NC(=O)[C@H](CS)NC(=O)[C@H](CCCNC(=N)N)NC(=O)[C@H](Cc1ccc(O)cc1)NC(=O)[C@H](CCCNC(=N)N)NC(=O)[C@H](CCCNC(=N)N)NC(=O)[C@@H](N)CO)C(=O)O [3102.0625] (H-SRRYRCSFA-OH) | 52 nM |

Source: article PMC2248166, “Quantitative peptide binding motifs for 19 human and mouse MHC class I molecules derived using positional scanning combinatorial peptide libraries” (Immunome Research, 2008)
